{"source": "patent US20120277161A1", "about": "“INHIBITION OF MULTIPLE CELL ACTIVATION PATHWAYS” (INTER-K PTY LIMITED, priority 2009, published 2012)", "key": {"PKC beta II": {"molecular_target": "PKC beta II (Homo sapiens, UniProt P05771)", "sequence (P05771 1-673 isoform P05771-2)": "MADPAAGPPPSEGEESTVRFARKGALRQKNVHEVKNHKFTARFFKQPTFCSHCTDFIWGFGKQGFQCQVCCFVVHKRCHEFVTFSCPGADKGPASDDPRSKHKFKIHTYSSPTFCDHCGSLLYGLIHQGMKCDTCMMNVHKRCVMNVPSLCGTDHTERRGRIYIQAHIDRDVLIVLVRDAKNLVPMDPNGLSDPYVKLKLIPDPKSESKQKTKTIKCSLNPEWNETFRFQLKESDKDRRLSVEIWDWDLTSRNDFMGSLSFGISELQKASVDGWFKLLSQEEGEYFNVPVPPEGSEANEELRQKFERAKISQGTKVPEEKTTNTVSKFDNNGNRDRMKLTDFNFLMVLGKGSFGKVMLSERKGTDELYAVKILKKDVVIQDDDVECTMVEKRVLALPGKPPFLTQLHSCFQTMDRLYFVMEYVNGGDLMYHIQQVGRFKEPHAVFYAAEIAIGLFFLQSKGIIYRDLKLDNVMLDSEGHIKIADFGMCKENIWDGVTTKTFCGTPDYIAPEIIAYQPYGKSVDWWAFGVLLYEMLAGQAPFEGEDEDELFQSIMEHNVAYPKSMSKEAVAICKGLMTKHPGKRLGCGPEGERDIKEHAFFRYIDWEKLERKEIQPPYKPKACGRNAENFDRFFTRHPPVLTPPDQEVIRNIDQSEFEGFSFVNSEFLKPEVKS", "test": "PKC kinase activity assay", "assay_type": "biochemical", "settings": "dendrimer conc. 1 μM; read-out: Percentage (%) kinase inhibition PKC beta II", "protocol": "(§1) In a final reaction volume of […] PKC kinase (h) (5-10 mU) is incubated with 20 mM HEPES pH 7.4, 0.03% Triton X-100, […], 0.1 mg/mL phosphatidylserine, 10 μg/mL diacylglycerol, 0.1 mg/mL histone H1 or 50 μM of the peptide ERMRPRKRQGSVRRRV (SEQ ID No. 20), 10 mM MgAcetate and [γ-33P-ATP] (specific activity approx. 500 cpm/pmol, concentration as required). The reaction is initiated by the addition of the MgATP mix. After incubation for 40 minutes at room temperature, the reaction is stopped by the addition of 5 μL of a 3% phosphoric acid solution. 10 μL of the reaction is then spotted onto a P30 filtermat and washed three times for 5 minutes in 75 mM phosphoric acid and once in methanol prior to drying and scintillation counting."}, "PKC alpha": {"molecular_target": "PKC alpha (Homo sapiens, UniProt P17252)", "test": "PKC kinase activity assay", "assay_type": "biochemical", "settings": "dendrimer conc. 1 μM; read-out: Percentage (%) kinase inhibition PKC alpha", "protocol": "as §1"}, "PKC beta I": {"molecular_target": "PKC beta I (Homo sapiens, UniProt P05771)", "sequence (P05771 whole entry)": "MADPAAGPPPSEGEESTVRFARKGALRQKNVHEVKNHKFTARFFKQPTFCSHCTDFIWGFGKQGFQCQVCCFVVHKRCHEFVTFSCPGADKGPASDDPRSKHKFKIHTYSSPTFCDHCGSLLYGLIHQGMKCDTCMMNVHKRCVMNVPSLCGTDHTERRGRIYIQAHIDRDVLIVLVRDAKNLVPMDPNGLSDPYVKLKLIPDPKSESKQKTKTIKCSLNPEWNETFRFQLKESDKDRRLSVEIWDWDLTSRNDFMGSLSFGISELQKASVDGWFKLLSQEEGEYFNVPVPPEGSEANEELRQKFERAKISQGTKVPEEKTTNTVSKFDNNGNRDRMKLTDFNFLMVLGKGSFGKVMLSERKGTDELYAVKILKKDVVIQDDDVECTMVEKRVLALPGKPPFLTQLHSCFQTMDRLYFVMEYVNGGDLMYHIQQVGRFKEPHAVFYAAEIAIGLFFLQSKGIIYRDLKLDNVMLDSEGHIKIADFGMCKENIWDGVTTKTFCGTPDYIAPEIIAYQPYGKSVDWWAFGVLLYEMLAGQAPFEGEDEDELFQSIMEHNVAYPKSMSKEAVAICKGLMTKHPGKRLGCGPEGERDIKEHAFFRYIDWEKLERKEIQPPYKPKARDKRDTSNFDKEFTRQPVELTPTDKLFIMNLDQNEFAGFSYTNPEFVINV", "test": "PKC kinase activity assay", "assay_type": "biochemical", "settings": "dendrimer conc. 1 μM; read-out: Percentage (%) kinase inhibition PKC beta I", "protocol": "as §1"}, "[1]": {"system": "HT29 human colorectal adenocarcinoma tumour", "test": "Inhibition of HT29 tumour growth in a mouse model", "assay_type": "in vivo, Mouse (Mus musculus) BALB/c nu/nu", "settings": "for Tumour volume Delta avg: change from day 0; for dT/dC [%]: versus vehicle", "protocol": "HT29 human colorectal adenocarcinoma cells were cultured in RPMI 1640 cell culture medium supplemented with 10% v/v heat inactivated FCS and 50 IU/mL penicillin-streptomycin. The cells were harvested by trypsinisation, washed twice in HBSS and counted. The cells were then resuspended in HBSS to a final concentration of 2×10^7 cells/mL.\nPrior to inoculation the skin on the injection site (dorsal right flank) was swabbed with alcohol. The needle was introduced through the skin into the subcutaneous space just below the animal's right shoulder, and 100 μL of cells (2×10^6 cells) were discharged. The treatment of mice began nine days after HT29 cell inoculation, the average tumour volume was 68 mm^3 (average variability of 6.1%).\nBody weight and tumour dimensions (length and diameter) were measured for all animals on the first day of treatment (day 0) and then three times per week, including the termination day of the study (Day 24).\nMice were randomized, based on body weight, into two groups of ten mice on Day 0 of the study. The peptide dendrimer Dend 10-10(4) presenting 10 monomer units of the peptide RSKAKNPLYR (SEQ ID No. 6) (see Example 2) was used in this study. The vehicle control (phosphate buffered saline (PBS)) and Dend 10-10(4) dendrimer (20 mg/kg) were each administered by intra-tumoural injection once daily for five consecutive days, beginning on Day 0.\nThe vehicle control and Dend 10-10(4) dendrimer were administered at a dosing volume of 4.762 mL/kg (100 μL) based on a 21 g mouse. Each animal's body weight was measured immediately prior to dosing. The volume of dosing solution administered to each mouse was calculated and adjusted based on individual body weight.\nTumours were excised from all mice post mortem and weighed. Tumour volume was calculated using the equation:\nV (mm^3)=length×diameter^2×π/6\nΔT/ΔC (%) was calculated using the following equation:\nΔT/ΔC %=(ΔvolumeTreatment/ΔVolumeControl)×100\nwhere Δ=change in volume from day 0 to the final measurement day or nominated day of interest."}, "PKB gamma": {"molecular_target": "PKB gamma (Homo sapiens, UniProt Q9Y243)", "sequence (Q9Y243 whole entry)": "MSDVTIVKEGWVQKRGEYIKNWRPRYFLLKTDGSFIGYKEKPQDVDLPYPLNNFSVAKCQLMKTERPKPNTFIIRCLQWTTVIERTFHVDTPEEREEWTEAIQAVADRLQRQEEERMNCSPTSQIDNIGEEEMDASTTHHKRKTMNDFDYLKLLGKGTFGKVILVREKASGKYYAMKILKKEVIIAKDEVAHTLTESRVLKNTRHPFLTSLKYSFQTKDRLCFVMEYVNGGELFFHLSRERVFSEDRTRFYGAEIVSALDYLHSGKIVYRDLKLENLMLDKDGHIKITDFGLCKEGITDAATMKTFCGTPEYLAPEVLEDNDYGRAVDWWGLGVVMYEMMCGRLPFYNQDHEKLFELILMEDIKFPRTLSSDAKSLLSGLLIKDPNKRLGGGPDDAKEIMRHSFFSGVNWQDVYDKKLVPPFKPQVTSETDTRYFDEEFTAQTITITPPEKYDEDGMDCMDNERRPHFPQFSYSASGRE", "test": "PKB kinase activity assay", "assay_type": "biochemical", "settings": "dendrimer conc. 1 μM; read-out: Percentage (%) kinase inhibition PKB gamma", "protocol": "(§2) In a final reaction volume of 25 μL, PKB(h) (5-10 mU) is incubated with 8 mM MOPS pH 7.0, 0.2 mM EDTA, 30 μM GRPRTSSFAEGKK (SEQ ID No. 26), 10 mM MgAcetate and [γ-33P-ATP] (specific activity approx. 500 cpm/pmol, concentration as required). The reaction is initiated by the addition of the MgATP mix. After incubation for 40 minutes at room temperature, the reaction is stopped by the addition of 5 μL of a 3% phosphoric acid solution. 10 μL of the reaction mixture is then spotted onto a P30 filtermat and washed three times for 5 minutes in 75 mM phosphoric acid and once in methanol prior to drying and scintillation counting."}, "PKB beta": {"molecular_target": "PKB beta (Homo sapiens, UniProt P31751)", "sequence (P31751 whole entry)": "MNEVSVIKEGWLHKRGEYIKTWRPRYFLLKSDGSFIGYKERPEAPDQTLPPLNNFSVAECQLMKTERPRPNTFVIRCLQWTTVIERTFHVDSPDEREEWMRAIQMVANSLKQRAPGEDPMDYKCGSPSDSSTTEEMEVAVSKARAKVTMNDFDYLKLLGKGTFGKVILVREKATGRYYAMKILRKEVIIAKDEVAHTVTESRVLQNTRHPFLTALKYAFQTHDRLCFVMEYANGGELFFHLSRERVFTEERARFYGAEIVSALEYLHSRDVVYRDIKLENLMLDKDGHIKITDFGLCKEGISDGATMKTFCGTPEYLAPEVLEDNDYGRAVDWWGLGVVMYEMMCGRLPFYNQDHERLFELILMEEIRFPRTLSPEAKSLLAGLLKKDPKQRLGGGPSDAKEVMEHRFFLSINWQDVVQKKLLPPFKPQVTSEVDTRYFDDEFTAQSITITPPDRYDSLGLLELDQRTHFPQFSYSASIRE", "test": "PKB kinase activity assay", "assay_type": "biochemical", "settings": "dendrimer conc. 1 μM; read-out: Percentage (%) kinase inhibition PKB beta", "protocol": "as §2"}}}
{"molecule": "CC(C)C[C@H](NC(=O)[C@@H]1CCCN1C(=O)[C@H](CC(N)=O)NC(=O)[C@H](CCCCN)NC(=O)[C@H](C)NC(=O)[C@H](CCCCN)NC(=O)[C@H](CO)NC(=O)[C@@H](N)CCCNC(=N)N)C(=O)N[C@@H](Cc1ccc(O)cc1)C(=O)N[C@@H](CCCNC(=N)N)C(=O)NCCCC[C@H](NC(=O)[C@H](CCCCNC(=O)[C@H](CCCCNC(=O)[C@H](CCCNC(=N)N)NC(=O)[C@H](Cc1ccc(O)cc1)NC(=O)[C@H](CC(C)C)NC(=O)[C@@H]1CCCN1C(=O)[C@H](CC(N)=O)NC(=O)[C@H](CCCCN)NC(=O)[C@H](C)NC(=O)[C@H](CCCCN)NC(=O)[C@H](CO)NC(=O)[C@@H](N)CCCNC(=N)N)NC(=O)[C@H](CCCNC(=N)N)NC(=O)[C@H](Cc1ccc(O)cc1)NC(=O)[C@H](CC(C)C)NC(=O)[C@@H]1CCCN1C(=O)[C@H](CC(N)=O)NC(=O)[C@H](CCCCN)NC(=O)[C@H](C)NC(=O)[C@H](CCCCN)NC(=O)[C@H](CO)NC(=O)[C@@H](N)CCCNC(=N)N)NC(=O)[C@H](CCCCNC(=O)[C@H](CCCNC(=N)N)NC(=O)[C@H](Cc1ccc(O)cc1)NC(=O)[C@H](CC(C)C)NC(=O)[C@@H]1CCCN1C(=O)[C@H](CC(N)=O)NC(=O)[C@H](CCCCN)NC(=O)[C@H](C)NC(=O)[C@H](CCCCN)NC(=O)[C@H](CO)NC(=O)[C@@H](N)CCCNC(=N)N)NC(=O)[C@H](CCCNC(=N)N)NC(=O)[C@H](Cc1ccc(O)cc1)NC(=O)[C@H](CC(C)C)NC(=O)[C@@H]1CCCN1C(=O)[C@H](CC(N)=O)NC(=O)[C@H](CCCCN)NC(=O)[C@H](C)NC(=O)[C@H](CCCCN)NC(=O)[C@H](CO)NC(=O)[C@@H](N)CCCNC(=N)N)C(=O)NCCCC[C@H](NC(=O)[C@H](CCCCNC(=O)[C@H](CCCNC(=N)N)NC(=O)[C@H](Cc1ccc(O)cc1)NC(=O)[C@H](CC(C)C)NC(=O)[C@@H]1CCCN1C(=O)[C@H](CC(N)=O)NC(=O)[C@H](CCCCN)NC(=O)[C@H](C)NC(=O)[C@H](CCCCN)NC(=O)[C@H](CO)NC(=O)[C@@H](N)CCCNC(=N)N)NC(=O)[C@H](CCCCNC(=O)[C@H](CCCCNC(=O)[C@H](CCCNC(=N)N)NC(=O)[C@H](Cc1ccc(O)cc1)NC(=O)[C@H](CC(C)C)NC(=O)[C@@H]1CCCN1C(=O)[C@H](CC(N)=O)NC(=O)[C@H](CCCCN)NC(=O)[C@H](C)NC(=O)[C@H](CCCCN)NC(=O)[C@H](CO)NC(=O)[C@@H](N)CCCNC(=N)N)NC(=O)[C@H](CCCNC(=N)N)NC(=O)[C@H](Cc1ccc(O)cc1)NC(=O)[C@H](CC(C)C)NC(=O)[C@@H]1CCCN1C(=O)[C@H](CC(N)=O)NC(=O)[C@H](CCCCN)NC(=O)[C@H](C)NC(=O)[C@H](CCCCN)NC(=O)[C@H](CO)NC(=O)[C@@H](N)CCCNC(=N)N)NC(=O)[C@H](CCCCNC(=O)[C@H](CCCNC(=N)N)NC(=O)[C@H](Cc1ccc(O)cc1)NC(=O)[C@H](CC(C)C)NC(=O)[C@@H]1CCCN1C(=O)[C@H](CC(N)=O)NC(=O)[C@H](CCCCN)NC(=O)[C@H](C)NC(=O)[C@H](CCCCN)NC(=O)[C@H](CO)NC(=O)[C@@H](N)CCCNC(=N)N)NC(=O)[C@H](CCCNC(=N)N)NC(=O)[C@H](Cc1ccc(O)cc1)NC(=O)[C@H](CC(C)C)NC(=O)[C@@H]1CCCN1C(=O)[C@H](CC(N)=O)NC(=O)[C@H](CCCCN)NC(=O)[C@H](C)NC(=O)[C@H](CCCCN)NC(=O)[C@H](CO)NC(=O)[C@@H](N)CCCNC(=N)N)C(=O)NCCC(N)=O", "note": "[Dend 10-10(4)]", "values": [{"measurement": "inhibition at 1 µM", "setting": "PKC beta II", "result": 75, "unit": "%"}, {"measurement": "inhibition at 1 µM", "setting": "PKC alpha", "result": 78, "unit": "%"}, {"measurement": "inhibition at 1 µM", "setting": "PKC beta I", "result": 67, "unit": "%"}, {"measurement": "Tumour volume Average", "setting": "[1]; 20 mg/kg intra-tumoural once daily for five days, Day 0", "result": 68.0, "unit": "mm^3"}, {"measurement": "Tumour volume Average", "setting": "[1]; 20 mg/kg intra-tumoural once daily for five days, Day 2", "result": 136.6, "unit": "mm^3"}, {"measurement": "Tumour volume Average", "setting": "[1]; 20 mg/kg intra-tumoural once daily for five days, Day 4", "result": 211.9, "unit": "mm^3"}, {"measurement": "Tumour volume Average", "setting": "[1]; 20 mg/kg intra-tumoural once daily for five days, Day 7", "result": 248.6, "unit": "mm^3"}, {"measurement": "Tumour volume Average", "setting": "[1]; 20 mg/kg intra-tumoural once daily for five days, Day 11", "result": 300.9, "unit": "mm^3"}, {"measurement": "Tumour volume Average", "setting": "[1]; 20 mg/kg intra-tumoural once daily for five days, Day 14", "result": 323.9, "unit": "mm^3"}, {"measurement": "Tumour volume Average", "setting": "[1]; 20 mg/kg intra-tumoural once daily for five days, Day 16", "result": 391.0, "unit": "mm^3"}, {"measurement": "Tumour volume Average", "setting": "[1]; 20 mg/kg intra-tumoural once daily for five days, Day 18", "result": 476.9, "unit": "mm^3"}, {"measurement": "Tumour volume Average", "setting": "[1]; 20 mg/kg intra-tumoural once daily for five days, Day 21", "result": 601.5, "unit": "mm^3"}, {"measurement": "Tumour volume Average", "setting": "[1]; 20 mg/kg intra-tumoural once daily for five days, Day 24", "result": 702.1, "unit": "mm^3"}, {"measurement": "average tumour weight at the end of the study", "setting": "[1]; 20 mg/kg intra-tumoural once daily for five days, Day 24, control 0.962 g", "result": 0.437, "unit": "g"}, {"measurement": "tumour growth compared to the vehicle only control", "setting": "[1]; FIG. 16", "result": "markedly inhibited"}, {"measurement": "Tumour volume Delta avg", "setting": "[1]; Day 0", "result": 0.0, "unit": "mm^3"}, {"measurement": "Tumour volume Delta avg", "setting": "[1]; Day 2", "result": 68.6, "unit": "mm^3"}, {"measurement": "Tumour volume Delta avg", "setting": "[1]; Day 4", "result": 144.0, "unit": "mm^3"}, {"measurement": "Tumour volume Delta avg", "setting": "[1]; Day 7", "result": 180.6, "unit": "mm^3"}, {"measurement": "Tumour volume Delta avg", "setting": "[1]; Day 11", "result": 232.9, "unit": "mm^3"}, {"measurement": "Tumour volume Delta avg", "setting": "[1]; Day 14", "result": 255.9, "unit": "mm^3"}, {"measurement": "Tumour volume Delta avg", "setting": "[1]; Day 16", "result": 323.1, "unit": "mm^3"}, {"measurement": "Tumour volume Delta avg", "setting": "[1]; Day 18", "result": 408.9, "unit": "mm^3"}, {"measurement": "Tumour volume Delta avg", "setting": "[1]; Day 21", "result": 598.7, "unit": "mm^3"}, {"measurement": "Tumour volume Delta avg", "setting": "[1]; Day 24", "result": 710.4, "unit": "mm^3"}, {"measurement": "dT/dC [%]", "setting": "[1]; Day 0", "result": 100.0, "unit": "%"}, {"measurement": "dT/dC [%]", "setting": "[1]; Day 2", "result": 134.3, "unit": "%"}, {"measurement": "dT/dC [%]", "setting": "[1]; Day 4", "result": 102.0, "unit": "%"}, {"measurement": "dT/dC [%]", "setting": "[1]; Day 7", "result": 68.1, "unit": "%"}, {"measurement": "dT/dC [%]", "setting": "[1]; Day 11", "result": 58.0, "unit": "%"}, {"measurement": "dT/dC [%]", "setting": "[1]; Day 14", "result": 44.6, "unit": "%"}, {"measurement": "dT/dC [%]", "setting": "[1]; Day 16", "result": 45.2, "unit": "%"}, {"measurement": "dT/dC [%]", "setting": "[1]; Day 18", "result": 47.1, "unit": "%"}, {"measurement": "dT/dC [%]", "setting": "[1]; Day 21", "result": 55.7, "unit": "%"}, {"measurement": "dT/dC [%]", "setting": "[1]; Day 24", "result": 54.5, "unit": "%"}, {"measurement": "inhibition at 1 µM", "setting": "PKB gamma", "result": 99, "unit": "%"}, {"measurement": "inhibition at 1 µM", "setting": "PKB beta", "result": 70, "unit": "%"}]}
